Test results reported in patent US20070293581A1, “Methods for Buccal, Lingual or Sublingual Dosing Regimens of Epinephrine for the Treatment of Allergic Emergencies” (priority 2006, published 2007).
Where two headings read alike, the source gives them in different places.

Tested on: patient experiencing an allergic emergency (symptoms of anaphylaxis)
Procedure: A patient experiencing an allergic emergency initiates treatment at the onset of shortness of breath by self administering 40 mg of epinephrine free base in a buccal dosage form.
A patient experiencing an allergic emergency initiates treatment at the onset of shortness of breath by self administering 40 mg of epinephrine free base in a buccal dosage form. […] After another approximately 5 minutes pass without amelioration of the symptoms of anaphylaxis, the patient self administers a third buccal dosage form comprising 20 mg of epinephrine free base.
A patient experiencing an allergic emergency initiates treatment at the onset of shortness of breath by self administering 40 mg of epinephrine free base in a lingual dosage form. After approximately 5 minutes pass without amelioration of the symptoms of anaphylaxis, the patient self administers a second lingual dosage form comprising 40 mg of epinephrine free base. After another approximately 5 minutes pass without amelioration of the symptoms of anaphylaxis, the patient self administers a third lingual dosage form comprising 20 mg of epinephrine free base.

Measured: patient's symptoms of anaphylaxis

CNC[C@H](O)c1ccc(O)c(O)c1 [epinephrine free base, epinephrine]
relieved: Example 1: buccal dosage form, 40 mg then second 40 mg after approx. 5 minutes, outcome within about five minutes after the second dose | Example 2: buccal dosage form, 40 mg, then 20 mg at approx. 5 minute intervals, outcome within about five minutes after the third dose | Example 3: lingual dosage form, 40 mg, then 20 mg at approx. 5 minute intervals, outcome within about five minutes after the third dose
